From patent US20250382332A1, “NOVEL ALPHA-FACTOR BASED PEPTIDES WITH ANTIFUNGAL ACTIVITY” (INVAIO SCIENCES, INC., priority 2024, published 2025) come the findings set out here.

Each structure is given as a SMILES string. Peptide text beside a SMILES is read from it.

The test relates to Botrytis cinerea (B05.10). Kind of test: Resazurin antifungal assay of 180 alpha-factor peptide variants towards Botrytis (Example 2). Conditions: % inhibition of fungal growth, Botrytis conidia, resazurin; for Inhibition at 50 μM: peptide 50 μM; for Inhibition at 100 μM: peptide 100 μM; for Inhibition at 10 μM: peptide 10 μM; for Inhibition at 15 μM: peptide 15 μM; for Inhibition at 20 μM: peptide 20 μM. The test is classed as cell-based. In outline: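 B. cinerea B05.10 conidia (5000/well) were exposed to peptides at 100, 50, 20, 15 and 10 μM final for 24 h at 20° C. Resazurin was then added and fluorescence read at 570/620 nm. Percent growth inhibition was calculated against conidia-only wells, with four technical replicates.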

Consider `CSCC[C@H](NC(=O)[C@@H]1CCCN1C(=O)[C@H](CCC(=O)O)NC(=O)CNC(=O)[C@@H]1CCCN1C(=O)[C@H](CCCCN)NC(=O)[C@H](CC(C)C)NC(=O)[C@H](CCCCN)NC(=O)[C@H](CC(C)C)NC(=O)[C@H](Cc1c[nH]c2ccccc12)NC(=O)[C@H](Cc1c[nH]cn1)NC(=O)[C@@H]1CCCN1)C(=O)N[C@@H](Cc1ccc(O)cc1)C(=O)O` [compound 136] (H-PHWLKLKPGEPMY-OH; N-terminus and C-terminus assumed), for which the Inhibition (usually the change of the read-out against control, counted positive when it falls) at 50 μM is given as less than 90% and the “Inhibition at 100 μM” value is less than 90%.

With `CSCC[C@H](NC(=O)[C@@H]1CCCN1C(=O)[C@H](CCC(N)=O)NC(=O)CNC(=O)[C@@H]1CCCN1C(=O)[C@H](Cc1ccccc1)NC(=O)[C@H](CC(C)C)NC(=O)[C@H](CCCCN)NC(=O)[C@H](CC(C)C)NC(=O)[C@H](Cc1c[nH]c2ccccc12)NC(=O)[C@H](Cc1c[nH]cn1)NC(=O)[C@@H](N)CCCCN)C(=O)N[C@@H](Cc1ccc(O)cc1)C(=O)O` [compound 61] (H-KHWLKLFPGQPMY-OH; N-terminus and C-terminus assumed), the “Inhibition at 10 μM” value is given as less than 90%, the “Inhibition at 15 μM” value is on record as less than 90%, the “Inhibition at 20 μM” value came to 98.64% and the “Inhibition at 50 μM” value is recorded as 100%. The “Inhibition at 100 μM” value was 100%.

Turning to `CSCC[C@H](NC(=O)[C@@H]1CCCN1C(=O)[C@H](CCC(N)=O)NC(=O)CNC(=O)[C@@H]1CCCN1C(=O)[C@H](CCCCN)NC(=O)[C@H](Cc1ccccc1)NC(=O)[C@H](CCCNC(=N)N)NC(=O)[C@H](CC(C)C)NC(=O)[C@H](CC(=O)O)NC(=O)[C@H](Cc1c[nH]cn1)NC(=O)[C@@H](N)CCCCN)C(=O)N[C@@H](Cc1ccc(O)cc1)C(=O)O` [compound 29] (H-KHDLRFKPGQPMY-OH; N-terminus and C-terminus assumed), the “Inhibition at 50 μM” value is less than 90% and the “Inhibition at 100 μM” value worked out at 97.77%.

As for `CSCC[C@H](NC(=O)[C@H](Cc1c[nH]cn1)NC(=O)[C@@H](N)Cc1c[nH]c2ccccc12)C(=O)N[C@H](C(=O)N[C@@H](CCC(N)=O)C(=O)N[C@@H](CC(C)C)C(=O)N[C@@H](CCCCN)C(=O)N1CCC[C@H]1C(=O)NCC(=O)N[C@@H](CCC(=O)O)C(=O)N1CCC[C@H]1C(=O)N[C@@H](CCSC)C(=O)N[C@@H](Cc1ccc(O)cc1)C(=O)O)C(C)C` [compound 163] (H-WHMVQLKPGEPMY-OH; N-terminus and C-terminus assumed), the “Inhibition at 50 μM” value is recorded as less than 90% and the “Inhibition at 100 μM” value is reported as less than 90%.

Regarding `CSCC[C@H](NC(=O)[C@H](CO)NC(=O)[C@H](CCC(N)=O)NC(=O)CNC(=O)[C@@H]1CCCN1C(=O)[C@H](CCCCN)NC(=O)[C@H](Cc1ccccc1)NC(=O)[C@H](CC(N)=O)NC(=O)[C@H](CC(C)C)NC(=O)[C@H](CO)NC(=O)[C@H](CCCCN)NC(=O)[C@@H](N)Cc1c[nH]c2ccccc12)C(=O)N[C@@H](Cc1ccc(O)cc1)C(=O)O` [compound 159] (H-WKSLNFKPGQSMY-OH; N-terminus and C-terminus assumed), the “Inhibition at 50 μM” value is on record as less than 90% and the “Inhibition at 100 μM” value is less than 90%.

As for `CC[C@H](C)[C@H](NC(=O)[C@H](Cc1c[nH]c2ccccc12)NC(=O)[C@H](CCCCN)NC(=O)[C@@H]1CCCN1)C(=O)N[C@@H](CCCNC(=N)N)C(=O)N[C@@H](CC(C)C)C(=O)N[C@@H](CCCCN)C(=O)N1CCC[C@H]1C(=O)NCC(=O)N[C@@H](CCC(N)=O)C(=O)N1CCC[C@H]1C(=O)N[C@@H](CCSC)C(=O)N[C@@H](Cc1ccc(O)cc1)C(=O)O` [compound 19] (H-PKWIRLKPGQPMY-OH; N-terminus and C-terminus assumed), the “Inhibition at 10 μM” value was less than 90%, the “Inhibition at 20 μM” value is less than 90%, the “Inhibition at 50 μM” value is recorded as 100% and the “Inhibition at 100 μM” value is 100%.

For `CSCC[C@H](NC(=O)[C@H](Cc1c[nH]cn1)NC(=O)[C@@H](N)CCCCN)C(=O)N[C@@H](CC(C)C)C(=O)N[C@@H](CCCNC(=N)N)C(=O)N[C@@H](Cc1ccccc1)C(=O)N[C@@H](CCCCN)C(=O)N1CCC[C@H]1C(=O)NCC(=O)N[C@@H](CCC(N)=O)C(=O)N1CCC[C@H]1C(=O)N[C@@H](CCSC)C(=O)N[C@@H](Cc1ccc(O)cc1)C(=O)O` [compound 84] (H-KHMLRFKPGQPMY-OH; N-terminus and C-terminus assumed), the “Inhibition at 10 μM” value is on record as less than 90%, the “Inhibition at 15 μM” value is reported as less than 90%, the “Inhibition at 20 μM” value is on record as 97.08% and the “Inhibition at 50 μM” value is 100%. Also, the “Inhibition at 100 μM” value was 100%.

As to `CSCC[C@H](NC(=O)[C@@H]1CCCN1C(=O)[C@H](CCC(N)=O)NC(=O)CNC(=O)[C@@H]1CCCN1C(=O)[C@H](CCSC)NC(=O)[C@H](CC(C)C)NC(=O)[C@H](CCCCN)NC(=O)[C@H](CC(C)C)NC(=O)[C@@H](NC(=O)[C@H](CCCNC(=N)N)NC(=O)[C@@H](N)Cc1c[nH]c2ccccc12)C(C)C)C(=O)N[C@@H](Cc1ccc(O)cc1)C(=O)O` [compound 149] (H-WRVLKLMPGQPMY-OH; N-terminus and C-terminus assumed), the “Inhibition at 50 μM” value was less than 90% and the “Inhibition at 100 μM” value was less than 90%.

As for `CC[C@H](C)[C@H](NC(=O)[C@H](Cc1c[nH]c2ccccc12)NC(=O)[C@H](Cc1c[nH]cn1)NC(=O)[C@@H]1CCCN1)C(=O)N[C@@H](CCC(N)=O)C(=O)N[C@@H](CC(C)C)C(=O)N[C@@H](Cc1ccccc1)C(=O)N[C@@H](CC(N)=O)C(=O)NCC(=O)N[C@@H](CCC(N)=O)C(=O)N1CCC[C@H]1C(=O)N[C@@H](CCSC)C(=O)N[C@@H](Cc1ccc(O)cc1)C(=O)O` [compound 37] (H-PHWIQLFNGQPMY-OH; N-terminus and C-terminus assumed), the “Inhibition at 50 μM” value is listed as less than 90% and the “Inhibition at 100 μM” value was less than 90%.

Consider `CC[C@H](C)[C@H](NC(=O)[C@H](Cc1c[nH]c2ccccc12)NC(=O)[C@H](Cc1c[nH]cn1)NC(=O)[C@@H](N)CCCCN)C(=O)N[C@@H](CCCCN)C(=O)N[C@@H](CC(C)C)C(=O)N[C@@H](CCCCN)C(=O)N[C@@H](CC(N)=O)C(=O)NCC(=O)N[C@@H](CCC(N)=O)C(=O)N1CCC[C@H]1C(=O)N[C@@H](CCSC)C(=O)N[C@@H](Cc1ccc(O)cc1)C(=O)O` [compound 81] (H-KHWIKLKNGQPMY-OH; N-terminus and C-terminus assumed), for which the “Inhibition at 10 μM” value is less than 90%, the “Inhibition at 15 μM” value is on record as less than 90%, the “Inhibition at 20 μM” value was 99.51% and the “Inhibition at 50 μM” value worked out at 100%. Further, the “Inhibition at 100 μM” value is listed as 100%.

In the case of `CSCC[C@H](NC(=O)[C@@H]1CCCN1C(=O)[C@H](CCC(=O)O)NC(=O)CNC(=O)[C@H](CCCCN)NC(=O)[C@H](CCCCN)NC(=O)[C@H](CC(C)C)NC(=O)[C@H](CCC(N)=O)NC(=O)[C@@H](NC(=O)[C@H](Cc1c[nH]c2ccccc12)NC(=O)[C@H](Cc1c[nH]cn1)NC(=O)[C@@H](N)Cc1c[nH]c2ccccc12)C(C)C)C(=O)N[C@@H](Cc1ccc(O)cc1)C(=O)O` [compound 106] (H-WHWVQLKKGEPMY-OH; N-terminus and C-terminus assumed), the “Inhibition at 10 μM” value is recorded as less than 90%, the “Inhibition at 20 μM” value is less than 90%, the “Inhibition at 50 μM” value is reported as less than 90% and the “Inhibition at 100 μM” value stood at 100%.

On to `CSCC[C@H](NC(=O)[C@@H]1CCCN1C(=O)[C@H](CCC(N)=O)NC(=O)CNC(=O)[C@@H]1CCCN1C(=O)[C@H](CCCCN)NC(=O)[C@H](Cc1ccccc1)NC(=O)[C@@H](NC(=O)[C@H](CC(C)C)NC(=O)[C@H](CC(C)C)NC(=O)[C@H](Cc1c[nH]cn1)NC(=O)[C@@H](N)CCCCN)[C@@H](C)O)C(=O)N[C@@H](Cc1ccc(O)cc1)C(=O)O` [compound 95] (H-KHLLTFKPGQPMY-OH; N-terminus and C-terminus assumed), for which the “Inhibition at 10 μM” value is reported as less than 90%, the “Inhibition at 20 μM” value was less than 90%, the “Inhibition at 50 μM” value is 97.12% and the “Inhibition at 100 μM” value is 99.99%.

For the molecule `CSCC[C@H](NC(=O)CNC(=O)[C@H](CO)NC(=O)CNC(=O)[C@@H]1CCCN1C(=O)[C@H](CCCCN)NC(=O)[C@H](CC(C)C)NC(=O)[C@H](CCCNC(=N)N)NC(=O)[C@H](CC(C)C)NC(=O)[C@H](Cc1ccc(O)cc1)NC(=O)[C@H](CCCNC(=N)N)NC(=O)[C@@H](N)Cc1c[nH]c2ccccc12)C(=O)N[C@@H](Cc1ccc(O)cc1)C(=O)O` [compound 55] (H-WRYLRLKPGSGMY-OH; N-terminus and C-terminus assumed), the “Inhibition at 10 μM” value is on record as less than 90%, the “Inhibition at 15 μM” value was less than 90%, the “Inhibition at 20 μM” value is reported as 99.43% and the “Inhibition at 50 μM” value turned out to be 100%. The “Inhibition at 100 μM” value was 100%.

For `CSCC[C@H](NC(=O)[C@@H]1CCCN1C(=O)[C@H](CCC(N)=O)NC(=O)CNC(=O)[C@@H]1CCCN1C(=O)[C@H](Cc1c[nH]cn1)NC(=O)[C@H](CC(C)C)NC(=O)[C@H](CCCCN)NC(=O)[C@@H](NC(=O)[C@H](Cc1ccccc1)NC(=O)[C@H](Cc1c[nH]cn1)NC(=O)[C@@H](N)Cc1c[nH]c2ccccc12)C(C)C)C(=O)N[C@@H](Cc1ccc(O)cc1)C(=O)O` [compound 74] (H-WHFVKLHPGQPMY-OH; N-terminus and C-terminus assumed), the “Inhibition at 10 μM” value was less than 90%, the “Inhibition at 20 μM” value is reported as less than 90%, the “Inhibition at 50 μM” value was 100% and the “Inhibition at 100 μM” value worked out at 100%.
